Measured values reported in patent EP0215300A2, “Use of diazaphosphorines for combating endoparasites” (BAYER AG, priority 1985, dated 1987).

Columns and labels:
Caenorhabditis elegans = test: In vitro nematode test (inhibition of reproduction); assay type: cell-based; details: 168 h; concentration at which reproduction is prevented; 7 days at 22°C; E.coli suspension in M9 buffer; read-out: Minimale effektive Dosis
Method: 10-^4 g Wirkstoff werden in 1 ml Wasser oder 0,1 ml Dimethylsulfoxid (DMSO) gelöst. Diese Lösung wurde auf eine Replica-Platte gegeben. Dazu wurden 2 ml einer E.coli-Suspension gegeben, zu der man 10-20 weibliche Tiere oder Larven von Caenorhabditis elegans in 0,5 ml sterile M9 Pufferlösung gegeben hat. Die E.coli-Suspension wurde hergestellt indem man 300 ml einer Ubernachtkultur eines Uracil-bedürftigen E.coli-Stammes mit 1,8 1 steriler M9 Pufferlösung versetzte.
Der Versuchsansatz wurde 7 Tage bei 22°C inkubiert und danach ausgewertet. Es wurde bewertet inwieweit der Wirkstoff die Vermehrung beeinträchtigt und die Konzentration angegeben bei der die Vermehrung verhindert wird. Dabei wurden folgende Ergebnisse erhalten: • In vitro Nematodentest

Strongyloides ratti = test: In vivo nematode test in experimentally infected rats; details: rats (Ratten), oral by gavage on three consecutive days from day 7 after infection, killed day 13, at least 95 % of parasites killed, read-out: minimale effektive Dosis
Source text: (§1) Experimentell mit Strongyloides ratti infizierte Ratten werden 7 Tage nach der Infektion an drei aufeinanderfolgenden Tagen oral mittels Schlundsonde behandelt. Die Tiere werden 13 Tage nach der Infektion getötet und die Zahl der Parasiten bestimmt. Es wird die Wirkstoffkonzentration angegeben, bei der mindestens 95 % der Parasiten abgetötet wurden (minimale effektive Dosis): […]

Heterakis spumora = test: In vivo nematode test in experimentally infected mice; details: Mus musculus; mice (Mäuse); oral by gavage on four consecutive days from day 32 after infection; killed day 39; at least 95 % of parasites killed; read-out: minimale effektive Dosis
Source text: as §1, with “Heterakis spumora” for “Strongyloides ratti”, “Mäuse” for “Ratten”, “32” for “7”, “vier” for “drei”, “39” for “13”, “angegeben” for “angegeben,”

Hymenolepis nana = test: as above; details: Rodentolepis nana; mice (Mäuse); oral by gavage on four consecutive days from day 10 after infection; killed day 17; at least 95 % of parasites killed; read-out: minimale effektive Dosis
Source text: Experimeltell mit Hymenolepis nana infizierte Mäuse werden 10 Tage nach der Infektion an vier aufeinanderfolgenden Tagen oral mittels Schlundsonde behandelt. Die Tiere werden 17 Tage nach Infektion getötet und die Zahl der Parasiten bestimmt. Es wird die Wirkstoffkonzentration angegeben, bei der mindestens 95 % der Parasiten abgetötet wurden (minimale effektive Dosis): […]

For `Cc1cccc(OP2(=O)N(C)C(=O)C(C(=O)Nc3ccc(Cl)c(Cl)c3)C(=O)N2C(C)C)c1` (stereo not shown) [Beispiel 35], the minimal effective concentration (Caenorhabditis elegans) was 10 µg/mL.
For `Cc1cccc(OP2(=O)N(C)C(=O)C(C(=O)Nc3cccc(Cl)c3)C(=O)N2C(C)C)c1` (stereo not shown) [Beispiel 28], the minimal effective concentration (Caenorhabditis elegans) was 100 µg/mL.
With `CN1C(=O)C(C(=O)Nc2cccc(C(F)(F)F)c2)C(=O)N(C)P1(=O)Oc1cccc(Cl)c1` (stereo not shown) [Beispiel 36] the minimal effective concentration (Caenorhabditis elegans) was 10 µg/mL.
With `CC(C)N1C(=O)C(C(=O)Nc2cccc(C(F)(F)F)c2)C(=O)N(C(C)C)P1(=O)Oc1cccc(Cl)c1` (stereo not shown) [Beispiel 3] the minimal effective concentration (Caenorhabditis elegans) was 100 µg/mL.
Work on `CN1C(=O)C(C(=O)Nc2ccc(Cl)cc2)C(=O)N(C)P1(=O)Oc1ccc(Cl)cc1` (stereo not shown) [Beispiel 10] yielded a minimal effective concentration (Caenorhabditis elegans) of 1 µg/mL.
For `CN1C(=O)C(C(=O)Nc2ccc(C(F)(F)F)cc2)C(=O)N(C)P1(=O)Oc1ccccc1` (stereo not shown) [Beispiel 8], the minimal effective concentration (Caenorhabditis elegans) was 10 µg/mL and the minimal effective dose (Strongyloides ratti) was 25 mg/kg.
`CN1C(=O)C(C(=O)Nc2cccc(Cl)c2)C(=O)N(C)P1(=O)Oc1cccc(Cl)c1` (stereo not shown) [Beispiel 11] gave a minimal effective concentration (Caenorhabditis elegans) of 1 µg/mL and a minimal effective dose (Strongyloides ratti) of 10 mg/kg.
For `Cc1cccc(OP2(=O)N(C)C(=O)C(C(=O)Nc3cccc(C(F)(F)F)c3)C(=O)N2C(C)C)c1` (stereo not shown) [Beispiel 27], the minimal effective concentration (Caenorhabditis elegans) was 10 µg/mL.
In the case of `Cc1cccc(OP2(=O)NC(=O)C(C(=O)Nc3cccc(C(F)(F)F)c3)C(=O)N2C)c1` (stereo not shown) [Beispiel 34], the minimal effective concentration (Caenorhabditis elegans) was 100 µg/mL.
`CC(C)N1C(=O)C(C(=O)Nc2ccc(C(F)(F)F)cc2)C(=O)N(C)P1(=O)Oc1cccc(Cl)c1` (stereo not shown) [Beispiel 17] showed a minimal effective concentration (Caenorhabditis elegans) of 10 µg/mL.
`CCN1C(=O)C(C(=O)Nc2cccc(C(F)(F)F)c2)C(=O)N(C)P1(=O)Oc1cccc(Cl)c1` (stereo not shown) [Beispiel 20] was tested, and the minimal effective concentration (Caenorhabditis elegans) was 10 µg/mL and the minimal effective dose (Strongyloides ratti) was 250 mg/kg.
In the case of `CN1C(=O)C(C(=O)Nc2cccc(Cl)c2)C(=O)N(C)P1(=O)Oc1ccc(Cl)cc1` (stereo not shown) [Beispiel 12], the minimal effective concentration (Caenorhabditis elegans) was 100 µg/mL.
`CN1C(=O)C(C(=O)Nc2ccc(Cl)c(Cl)c2)C(=O)N(c2ccccc2)P1(=O)Oc1ccc(Cl)cc1` (stereo not shown) [Beispiel 37] gave a minimal effective concentration (Caenorhabditis elegans) of 10 µg/mL.
Work on `CN1C(=O)C(C(=O)Nc2ccc(C(F)(F)F)cc2)C(=O)N(C)P1(=O)Oc1ccc(Cl)cc1` (stereo not shown) [Beispiel 6] yielded a minimal effective concentration (Caenorhabditis elegans) of 1 µg/mL.
In the case of `CN1C(=O)C(C(=O)Nc2cccc(C(F)(F)F)c2)C(=O)N(C)P1(=O)Oc1ccc(Cl)cc1` (stereo not shown) [Beispiel 1], the minimal effective concentration (Caenorhabditis elegans) was 10 µg/mL.
In the case of `O=C(Nc1ccc(Cl)c(Cl)c1)C1C(=O)N(c2ccccc2)P(=O)(Oc2ccc(Cl)cc2)N(c2ccccc2)C1=O` (stereo not shown) [Beispiel 13], the minimal effective concentration (Caenorhabditis elegans) was 10 µg/mL.
Work on `CC(C)N1C(=O)C(C(=O)Nc2cccc(Cl)c2)C(=O)N(C)P1(=O)Oc1cccc(Cl)c1` (stereo not shown) [Beispiel 18] yielded a minimal effective concentration (Caenorhabditis elegans) of 10 µg/mL.
For `CC(C)N1C(=O)C(C(=O)Nc2cccc(Cl)c2)C(=O)N(C(C)C)P1(=O)Oc1cccc(Cl)c1` (stereo not shown) [Beispiel 2], the minimal effective concentration (Caenorhabditis elegans) was 100 µg/mL.
`O=C(Nc1ccc(Cl)c(Cl)c1)C1C(=O)N(c2ccccc2)P(=O)(Oc2ccccc2)N(c2ccccc2)C1=O` (stereo not shown) [Beispiel 14] was tested, and the minimal effective concentration (Caenorhabditis elegans) was 100 µg/mL.
In the case of `CC(C)N1C(=O)C(C(=O)Nc2cccc(C(F)(F)F)c2)C(=O)N(C)P1(=O)Oc1cccc(Cl)c1` (stereo not shown) [Beispiel 22], the minimal effective concentration (Caenorhabditis elegans) was 10 µg/mL, the minimal effective dose (Heterakis spumora) was 250 mg/kg and the minimal effective dose (Hymenolepis nana) was 250 mg/kg.
